Source: patent US4948894A, “8-fluoro and 7, 8, 10-trifluoro-9-(substituted)-6-oxo-6H-benzo-(C)quinolizine-5-carboxylic acids” (American Cyanamid Company, priority 1989, dated 1990)
In brackets after ≈: the same amount, converted by molar mass. Like-named read-outs stand apart in the source and are kept apart here.

What was measured:
Experiment in all cases: In vitro antibacterial spectrum, agar plate dilution method (MIC)
Type in all cases: cell-based
Proteus rettgeri = conditions: Providencia rettgeri; Proteus rettgeri IO 83-21; Mueller-Hinton agar, 10^4 CFU, 18 hours at 35° C
Protocol: (§1) The in vitro antimicrobial spectrum of the compounds of the invention were determined by the agar plate dilution method with Mueller-Hinton agar and an inoculum of each test organism of approximately 10^4 colony forming units delivered by the steers replicating device. The minimal inhibitory concentration (MIC) in mcg/ml is defined as the lowest concentration of test compound that inhibited visible growth after 18 hours incubation at 35° C.

Pseudomonas aeruginosa = conditions: Mueller-Hinton agar, 10^4 CFU, 18 hours at 35° C
Protocol: as §1

Providencia stuartii = Providencia stuartii CMC 83-3; Mueller-Hinton agar, 10^4 CFU, 18 hours at 35° C
Protocol: as §1

Streptococcus faecalis = conditions: Mueller-Hinton agar, 10^4 CFU, 18 hours at 35° C
Protocol: as §1

Klebsiella nneumoniae = conditions: Mueller-Hinton agar, 10^4 CFU, 18 hours at 35° C
Protocol: as §1

Morganella morganii = conditions: 18 h, 10^4 CFU, 18 hours at 35° C
Protocol: as §1

Serratia marcescens = conditions: 18 h, 10^4 CFU, 18 hours at 35° C
Protocol: as §1

Staphylococcus aureus = conditions: Mueller-Hinton agar, 10^4 CFU, 18 hours at 35° C
Protocol: as §1

Enterobacter cloacae = conditions: 18 h, 10^4 CFU, 18 hours at 35° C
Protocol: as §1

Citrobacter diversus = conditions: Citrobacter koseri; Citrobacter diversus K 82-24; Mueller-Hinton agar, 10^4 CFU, 18 hours at 35° C
Protocol: as §1

Escherichia coli = conditions: 10^4 CFU, 18 hours at 35° C
Protocol: as §1

CN1CCN(c2cc3c(cc2F)c(=O)c(C(=O)O)c2ccccn23)CC1 [Example 6, 8-Fluoro-9-(4-methyl-1-piperazinyl)-6-oxo-6H-benzo[c]quinolizine-5-carboxylic acid]
MIC (Proteus rettgeri): 1 µg/mL (≈ 2.81 µM) | MIC (Pseudomonas aeruginosa; Pseudomonas aeruginosa CMC 83-20): > 16 µg/mL | MIC (Pseudomonas aeruginosa; Pseudomonas aeruginosa K 84-16, read-out: MIC): > 16 µg/mL | MIC (Pseudomonas aeruginosa; Pseudomonas aeruginosa VGH 84-3): > 16 µg/mL | MIC (Providencia stuartii): > 16 µg/mL | MIC (Streptococcus faecalis; Enterococcus faecalis, Streptococcus faecalis VCI 85-30, read-out: MIC): > 16 µg/mL | MIC (Streptococcus faecalis; Streptococcus faecalis CMC 83-120): > 16 µg/mL | MIC (Streptococcus faecalis; Streptococcus faecalis VGH 84-69): > 16 µg/mL | MIC (Klebsiella nneumoniae; Klebsiella nneumoniae IO 83-5): 8 µg/mL (≈ 22.5 µM) | MIC (Klebsiella nneumoniae; Klebsiella nneumoniae MOR 84-24, read-out: MIC): 8 µg/mL (≈ 22.5 µM) | MIC (Klebsiella nneumoniae; Klebsiella oneumoniae CMC 84-31): 8 µg/mL (≈ 22.5 µM) | MIC (Morganella morganii; Morganella morganii CMC 84-38, Mueller-Hinton agar): 0.5 µg/mL (≈ 1.41 µM) | MIC (Morganella morganii; Morganella morganii VGH 84-12, Mueller-Hinton agar): 4 µg/mL (≈ 11.3 µM) | MIC (Morganella morganii; Moroanella morganii MOR 84-45, Mueller-Hinton agar): 0.5 µg/mL (≈ 1.41 µM) | MIC (Serratia marcescens; Serratia marcescens CMC 83-74, Mueller-Hinton agar): > 16 µg/mL | MIC (Serratia marcescens; Serratia marcescens IO 83-63, Mueller-Hinton agar): 4 µg/mL (≈ 11.3 µM) | MIC (Serratia marcescens; Serratia marcescens MOR 84-41, Mueller-Hinton agar): 2 µg/mL (≈ 5.63 µM) | MIC (Staphylococcus aureus; ATCC25913, Staphylococcus aureus ATCC 25913, read-out: MIC): > 16 µg/mL | MIC (Staphylococcus aureus; Staphylococcus aureus CMC 83-131): > 16 µg/mL | MIC (Staphylococcus aureus; Staphylococcus aureus K 82-26): > 16 µg/mL | MIC (Staphylococcus aureus; Staphylococcus aureus VGH 84-47, read-out: MIC): > 16 µg/mL | MIC (Enterobacter cloacae; Enterobacter cloacae K 84-10, Mueller-Hinton agar): 2 µg/mL (≈ 5.63 µM) | MIC (Enterobacter cloacae; Enterobacter cloacae MOR 84-30, Mueller-Hinton agar): 16 µg/mL (≈ 45 µM) | MIC (Enterobacter cloacae; Enterobacter cloacae VGH 84-39, Mueller-Hinton agar): 2 µg/mL (≈ 5.63 µM) | MIC (Citrobacter diversus): 4 µg/mL (≈ 11.3 µM) | MIC (Escherichia coli; 18 h, Escherichia coli CMC 84-50, Mueller-Hinton agar): 2 µg/mL (≈ 5.63 µM) | MIC (Escherichia coli; 18 h, Escherichia coli D 21, Mueller-Hinton agar): 4 µg/mL (≈ 11.3 µM) | MIC (Escherichia coli; 18 h, Escherichia coli D 22, Mueller-Hinton agar): 2 µg/mL (≈ 5.63 µM) | MIC (Escherichia coli; 18 h, Escherichia coli MOR 84-20, Mueller-Hinton agar): 2 µg/mL (≈ 5.63 µM) | MIC (Escherichia coli; 18 h, Escherichia coli VGH 84-19, Mueller-Hinton agar): 4 µg/mL (≈ 11.3 µM) | MIC (Escherichia coli; ATCC25922, 18 h, Escherichia coli ATCC 25922, Mueller-Hinton agar): 4 µg/mL (≈ 11.3 µM)
